Measurements published in patent US20050043534A1, “Modulators of ceramidase and methods of used based thereon” (priority 2001, published 2005).
Where “and” joins values, the source holds several entries; their conditions need not be identical. Equal values may be shown once.

Columns and labels:
[1] = system: MCF7 human breast carcinoma cells; assay: MTT cell viability assay, MCF7 cells; assay type: cell-based; conditions: 18 hours treatment
Experimental: The cells were contained at 37° C. in a humidified atmosphere containing 5% CO2 overnight. On Day 2, the cells were treated with the compound of interest which was dissolved in 100% ethanol. […] The control is a sample without the compound of interest.

mitochondrial ceramidase = mitochondrial ceramidase (Rattus norvegicus, UniProt Q91XT9); assay: mitochondrial ceramidase (mt-CDase) activity, radioactive assay or HPLC assay; assay type: biochemical; conditions: for effect on mt-CDase activity (in words): concentrations as stated at the place
Experimental: The enzymatic activity of mitochondrial ceramidase was determined by either one of the two following methods:
a. Radioactive assay: The mt-CDase activity was determined by measuring the release of radioactive fatty acid from tritiated ceramide ([^3H]-C16-Cer), labeled in the acyl chain. Briefly, organic solutions of ceramide and its analogues were initially mixed together, solvents were completely evaporated under nitrogen, then the dried lipids were dispersed in Triton-X 100 by sonication and vigorous vortexing. The reaction assay contained (in a final volume of 200 μl): enzyme (5-10 ng) and 10 nmoles of tritiated C16-ceramide (1×10^5 dpm) delivered in 100 μl of 1% Triton X-100 micelles in a glycine buffer pH 9.5 (200 mM).
b. HPLC-assay: The Mt-CDase activity was also determined by measuring the amount of sphingosine released. Basically the assay was initially the same as described above but using non-radioactive ceramide. The reaction was stopped with 800 μl of chloroform: methanol (2:1 v/v) mixture followed by the addition of phyto-sphingosine (0.5 nmoles) and dihydro-sphingosine (1 nmole) as internal standard and carrier, respectively. The reaction mix was then extracted with NaOH (50 μl, 1N), and the lower chloroform layer containing the sphingosine was further washed with water (100 μl) and dried. The released sphingosine was quantified as the ortho-phthaldehyde (OPA) derivatives as described (30). […] The solvent system was methyl alcohol: potassium phosphate buffer (5 mM), pH 7.0 (90:10 v/v) at a flow rate of 1 ml/min. […] Activity was determined relative to the phytosphingosine OPA peak.
The effects of various compounds of the invention which are stereochemical and structural analogues of ceramide and sphingosine on mt-CDase were investigated. […] Results were expressed as percent of the control ceramidase activity.

[2] = system: human embryonal kidney cells HEK-293; assay: MTT cell viability assay, HEK-293 cells; assay type: cell-based; conditions: 18 hours treatment
Experimental: MCF7 human breast carcinoma cells (ATCC No. HTB-22) and human embryonal kidney cells HEK-293 (ATCC No. CRL-1573) were purchased from American Type Culture Collection.
To investigate the effect of the compound of interest on each of these cell lines, on Day 1, about 50 μL (about 5,000 cells) of the MCF7 or HEK-293 cells were plated down into 96-well plate which contains RPMI 1640 1× (MOD) media (purchased from Media Tech) containing L-glutamine and 10% fetal calf serum (purchased from Gibco). The cells were contained at 37° C. in a humidified atmosphere containing 5% CO2 overnight. On Day 2, the cells were treated with the compound of interest which was dissolved in 100% ethanol. To facilitate dissolution of the compound of interest, a 98% ethanol/2% dodecane can be used as the solvent instead of 100% ethanol. […] The cells were treated with the compound of interest for 18 hours after which the effect on cell viability was measured by MTT assay (Mossman, T. (1983) J. Immuno. Meth. 65, 55-63; and Berridge, M. V. and Tan, A. S. (1993) Archives of Biochemistry & Biophysics, 303, 474-482) as described below.
MTT Assay: • (1) Add to each well 25 μL of MTT stock solution (5 mg/mL in PBS); • (2) Incubate for 5 hours; • (3) Add 100 μL of lysing buffer (20% SDS (w/v), 50% N,N-Dimethyl formamide (v/v)) and stand overnight; • (4) read plate at 595 nm.

[3] = system: mouse fibroblast cells, L929; assay: TNFα-induced PGE2 release from L929 cells; assay type: cell-based; conditions: preliminary data
Description: Interleukin-1 is a major inducer of inflammation and TNF is an important regulator of the reaction. Both cytokines can activate ceramidase, and thus inhibiting the activity of ceramidase can result in an anti-inflammatory effect. This may involve the prevention of the formation of sphingosine and sphingosine phosphate which have pro-inflammatory effects. Also, inhibition of ceramidase may prevent the hyperproliferation of immune cells that are important for inflammation. […] The release of PGE2 is also shown to be inhibited by D-(N-myristolyamino)-1-phenyl-1-propanol), D-MAPP, which is an inhibitor of one of the ceramidase. This observation may be important for inhibiting inflammatory reactions that occur in conditions, such as but not limited to rheumatoid arthritis. Thus, it is possible to treat or prevent inflammation by regulating the level of cellular ceramide using the method of the invention. As discussed above, ceramide level can be increased by administering compounds of the present invention that can inhibit mitochondrial ceramidase.

Sequence of mitochondrial ceramidase (Q91XT9 whole entry): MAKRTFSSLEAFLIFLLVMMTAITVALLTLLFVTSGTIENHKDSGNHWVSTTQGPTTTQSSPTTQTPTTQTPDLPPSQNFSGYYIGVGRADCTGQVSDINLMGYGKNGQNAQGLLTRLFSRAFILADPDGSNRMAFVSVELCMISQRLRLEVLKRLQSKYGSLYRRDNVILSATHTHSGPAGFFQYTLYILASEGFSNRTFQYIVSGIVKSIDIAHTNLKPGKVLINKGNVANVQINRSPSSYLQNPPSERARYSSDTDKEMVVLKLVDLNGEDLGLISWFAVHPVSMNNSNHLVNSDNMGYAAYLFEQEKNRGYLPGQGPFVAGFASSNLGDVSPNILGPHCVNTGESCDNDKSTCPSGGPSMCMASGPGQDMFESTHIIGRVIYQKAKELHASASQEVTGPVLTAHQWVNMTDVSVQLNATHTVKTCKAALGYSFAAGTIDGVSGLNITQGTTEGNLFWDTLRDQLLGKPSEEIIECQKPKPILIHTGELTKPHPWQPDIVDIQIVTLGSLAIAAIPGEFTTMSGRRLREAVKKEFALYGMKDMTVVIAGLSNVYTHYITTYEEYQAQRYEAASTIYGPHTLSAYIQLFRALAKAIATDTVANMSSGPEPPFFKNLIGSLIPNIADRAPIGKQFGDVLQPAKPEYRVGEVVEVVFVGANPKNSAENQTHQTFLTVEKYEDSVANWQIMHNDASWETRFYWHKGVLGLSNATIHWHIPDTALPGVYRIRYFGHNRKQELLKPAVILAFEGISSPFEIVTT

CCCCCCCCCCCCC/C=C/[C@@H](O)[C@H](CO)NC(=O)NCCCCCCCCCCCCCCCC [Compound C16-urea-Cer, (2S, 3R,4E)-N-[2-(1,3-Dihydroxy-4E-octadecene)]-N′-hexadecane-urea]
effect on cell growth and proliferation (in words) [1]: potent inhibitor of cell growth and proliferation | melting point: 105 to 106 °C | hydrolysis by mt-CDase (substrate or not, in words) (mitochondrial ceramidase): not a substrate | Estimated IC50 (mole %) (mitochondrial ceramidase; Table 1, ceramide analogues, hydrolysis of D-erythro-C16 or C18-ceramide at 0.625 mole % (50 μM)): 0.33 mole % | effect on mt-CDase activity (in words) (mitochondrial ceramidase): potent inhibitor | inhibition at 50 µM (mitochondrial ceramidase; inhibitor at 0.625 mole % (50 μM), read-out: inhibition (maximal inhibition) of mt-CDase activity): 75% | IC50 (mitochondrial ceramidase; substrate D-erythro-ceramide 50 μM): 25 µM | IC50 (50% inhibition of mt-CDase activity) (mitochondrial ceramidase; substrate D-erythro-ceramide 0.625 mole %): 0.33 mole % and 0.31 mole % | type of inhibition (double reciprocal analysis: Km increased, Vmax unchanged) (mitochondrial ceramidase; varying D-erythro-ceramide concentration): competitive inhibitor | effect on cell growth and proliferation (in words) [2]: potent inhibitor of cell growth and proliferation

CCCCCCCCCCCCCC(=O)NC(C)C(O)c1ccccc1 [D-MAPP]
release of PGE2 [3]: inhibited

CCCCCCCCCCCCCCCC(=O)O [palmitic acid, reference compound]
effect on mt-CDase activity (in words) (mitochondrial ceramidase): no significant variation

ceramide [reference compound]
Km of hydrolysis (mitochondrial ceramidase; ceramide as substrate): 1.3 mole %

dihydroceramide [reference compound]
hydrolysis by mt-CDase (substrate or not, in words) (mitochondrial ceramidase): significant loss of activity as a substrate
